# Data taken from the supplement of paper PMC10307832.
# Experiments:
# Assay in all cases: relative viability (nuclei count vs DMSO), 5 days (fraction); higher = more cells survive
# COR-L 105 = test system: COR-L 105
# Procedure, shortened: (§1)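 Values are medians from duplicate plates. Each reflects relative viability, defined as the nuclei count of treated wells over that of vehicle wells. Lung cancer cell lines in 1536-well plates were pin-tool dosed one day after seeding with one drug alone or with a fixed anchor-drug dose plus five library-drug doses (not always all listed) in √10 steps, then fixed, stained and imaged at 4× after 5 days.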
# COR-L23 = test system: COR-L23
# Procedure, shortened: as §1
# EPLC-272H = test system: EPLC-272H
# Procedure, shortened: as §1
# HARA = test system: HARA
# Procedure, shortened: as §1
# HCC-15 = test system: HCC-15
# Procedure, shortened: as §1
# HCC-366 = test system: HCC-366
# Procedure, shortened: as §1
# HCC-44 = test system: HCC-44
# Procedure, shortened: as §1
# HCC-78 = test system: HCC-78
# Procedure, shortened: as §1
# HCC-827 = test system: HCC-827
# Procedure, shortened: as §1
# LCLC-103H = test system: LCLC-103H
# Procedure, shortened: as §1
# NCI-H1395 = test system: NCI-H1395
# Procedure, shortened: as §1
# NCI-H1437 = test system: NCI-H1437
# Procedure, shortened: as §1
# NCI-H1792 = test system: NCI-H1792
# Procedure, shortened: as §1
# NCI-H1944 = test system: NCI-H1944
# Procedure, shortened: as §1
# NCI-H1975 = test system: NCI-H1975
# Procedure, shortened: as §1
# NCI-H2023 = test system: NCI-H2023
# Procedure, shortened: as §1
# NCI-H2085 = test system: NCI-H2085
# Procedure, shortened: as §1
# NCI-H2405 = test system: NCI-H2405
# Procedure, shortened: as §1
# NCI-H358 = test system: NCI-H358
# Procedure, shortened: as §1
# NCI-H661 = test system: NCI-H661
# Procedure, shortened: as §1
# NCI-H727 = test system: NCI-H727
# Procedure, shortened: as §1
# SK-LU-1 = test system: SK-LU-1
# Procedure, shortened: as §1
# UMC-11 = test system: UMC-11
# Procedure, shortened: as §1
structure (smiles),measurement,setting,value
Cc1cnc(-c2cnc(NCCNc3ccc(C#N)cn3)nc2-c2ccc(Cl)cc2Cl)[nH]1 + N=C(N)NC(=N)NCCc1ccccc1 [Phenformin] (partner 250 µM),relative viability,COR-L 105; first compound 0.08 µM,0.532
same,relative viability,COR-L 105; first compound 0.253 µM,0.487
same,relative viability,COR-L 105; first compound 0.8 µM,0.53
same,relative viability,COR-L 105; first compound 2.53 µM,0.357
same,relative viability,COR-L23; first compound 0.08 µM,0.493
same,relative viability,COR-L23; first compound 0.253 µM,0.449
same,relative viability,COR-L23; first compound 2.53 µM,0.408
same,relative viability,EPLC-272H; first compound 0.08 µM,0.333
same,relative viability,EPLC-272H; first compound 0.253 µM,0.318
same,relative viability,EPLC-272H; first compound 0.8 µM,0.315
same,relative viability,EPLC-272H; first compound 2.53 µM,0.316
same,relative viability,HARA; first compound 0.08 µM,0.451
same,relative viability,HARA; first compound 0.253 µM,0.413
same,relative viability,HARA; first compound 0.8 µM,0.477
same,relative viability,HARA; first compound 2.53 µM,0.412
same,relative viability,HCC-15; first compound 0.08 µM,0.462
same,relative viability,HCC-15; first compound 0.253 µM,0.415
same,relative viability,HCC-15; first compound 0.8 µM,0.471
same,relative viability,HCC-15; first compound 2.53 µM,0.412
same,relative viability,HCC-366; first compound 0.08 µM,0.606
same,relative viability,HCC-366; first compound 0.253 µM,0.455
same,relative viability,HCC-366; first compound 0.8 µM,0.557
same,relative viability,HCC-366; first compound 2.53 µM,0.507
same,relative viability,HCC-44; first compound 0.08 µM,0.209
same,relative viability,HCC-44; first compound 0.253 µM,0.192
same,relative viability,HCC-44; first compound 0.8 µM,0.182
same,relative viability,HCC-44; first compound 2.53 µM,0.139
same,relative viability,HCC-78; first compound 0.08 µM,0.804
same,relative viability,HCC-78; first compound 0.253 µM,0.675
same,relative viability,HCC-78; first compound 0.8 µM,0.636
same,relative viability,HCC-78; first compound 2.53 µM,0.645
same,relative viability,HCC-827; first compound 0.08 µM,0.384
same,relative viability,HCC-827; first compound 0.8 µM,0.362
same,relative viability,HCC-827; first compound 2.53 µM,0.337
same,relative viability,LCLC-103H; first compound 0.08 µM,0.273
same,relative viability,LCLC-103H; first compound 0.253 µM,0.342
same,relative viability,LCLC-103H; first compound 0.8 µM,0.31
same,relative viability,LCLC-103H; first compound 2.53 µM,0.3
same,relative viability,NCI-H1395; first compound 0.08 µM,0.483
same,relative viability,NCI-H1395; first compound 0.253 µM,0.424
same,relative viability,NCI-H1395; first compound 0.8 µM,0.45
same,relative viability,NCI-H1395; first compound 2.53 µM,0.431
same,relative viability,NCI-H1437; first compound 0.08 µM,0.304
same,relative viability,NCI-H1437; first compound 0.253 µM,0.357
same,relative viability,NCI-H1437; first compound 0.8 µM,0.297
same,relative viability,NCI-H1437; first compound 2.53 µM,0.295
same,relative viability,NCI-H1792; first compound 0.08 µM,0.464
same,relative viability,NCI-H1792; first compound 0.8 µM,0.329
same,relative viability,NCI-H1792; first compound 2.53 µM,0.391
same,relative viability,NCI-H1944; first compound 0.08 µM,0.203
same,relative viability,NCI-H1944; first compound 0.8 µM,0.221
same,relative viability,NCI-H1944; first compound 2.53 µM,0.195
same,relative viability,NCI-H1975; first compound 0.08 µM,0.418
same,relative viability,NCI-H1975; first compound 0.253 µM,0.405
same,relative viability,NCI-H1975; first compound 0.8 µM,0.384
same,relative viability,NCI-H1975; first compound 2.53 µM,0.286
same,relative viability,NCI-H2023; first compound 0.08 µM,0.436
same,relative viability,NCI-H2023; first compound 0.253 µM,0.413
same,relative viability,NCI-H2023; first compound 0.8 µM,0.422
same,relative viability,NCI-H2023; first compound 2.53 µM,0.33
same,relative viability,NCI-H2085; first compound 0.08 µM,0.735
same,relative viability,NCI-H2085; first compound 0.253 µM,0.688
same,relative viability,NCI-H2085; first compound 0.8 µM,0.686
same,relative viability,NCI-H2085; first compound 2.53 µM,0.691
same,relative viability,NCI-H2405; first compound 0.08 µM,0.385
same,relative viability,NCI-H2405; first compound 0.253 µM,0.418
same,relative viability,NCI-H2405; first compound 0.8 µM,0.398
same,relative viability,NCI-H2405; first compound 2.53 µM,0.358
same,relative viability,NCI-H358; first compound 0.08 µM,0.34
same,relative viability,NCI-H358; first compound 0.253 µM,0.307
same,relative viability,NCI-H358; first compound 0.8 µM,0.336
same,relative viability,NCI-H358; first compound 2.53 µM,0.299
same,relative viability,NCI-H661; first compound 0.08 µM,0.298
same,relative viability,NCI-H661; first compound 0.253 µM,0.295
same,relative viability,NCI-H661; first compound 0.8 µM,0.287
same,relative viability,NCI-H661; first compound 2.53 µM,0.314
same,relative viability,NCI-H727; first compound 0.08 µM,0.488
same,relative viability,NCI-H727; first compound 0.253 µM,0.478
same,relative viability,NCI-H727; first compound 0.8 µM,0.478
same,relative viability,NCI-H727; first compound 2.53 µM,0.597
same,relative viability,SK-LU-1; first compound 0.08 µM,0.649
same,relative viability,SK-LU-1; first compound 0.253 µM,0.533
same,relative viability,SK-LU-1; first compound 0.8 µM,0.576
same,relative viability,SK-LU-1; first compound 2.53 µM,0.557
same,relative viability,UMC-11; first compound 0.08 µM,0.339
same,relative viability,UMC-11; first compound 0.253 µM,0.315
same,relative viability,UMC-11; first compound 0.8 µM,0.352
same,relative viability,UMC-11; first compound 2.53 µM,0.376
